Experimental data reported in ChEMBL document CHEMBL3588779, “Novel 3-(1H-indol-3-yl)-2-[3-(4-methoxyphenyl)ureido]propanamides as selective agonists of human formyl-peptide receptor 2” (Bioorg Med Chem, 2015).

Tests used:
[1] = molecular target: T1, N-formyl peptide receptor 2 (Homo sapiens) (UniProt P25090); test: Agonist activity at human FPR2 transfected in human HL60 cells assessed as stimulation of Ca2+ influx measured every 5 secs for 240 secs by FLIPR assay relative to WKYMVm; format: functional, cell-based; settings: HL-60
T1 sequence (whole entry): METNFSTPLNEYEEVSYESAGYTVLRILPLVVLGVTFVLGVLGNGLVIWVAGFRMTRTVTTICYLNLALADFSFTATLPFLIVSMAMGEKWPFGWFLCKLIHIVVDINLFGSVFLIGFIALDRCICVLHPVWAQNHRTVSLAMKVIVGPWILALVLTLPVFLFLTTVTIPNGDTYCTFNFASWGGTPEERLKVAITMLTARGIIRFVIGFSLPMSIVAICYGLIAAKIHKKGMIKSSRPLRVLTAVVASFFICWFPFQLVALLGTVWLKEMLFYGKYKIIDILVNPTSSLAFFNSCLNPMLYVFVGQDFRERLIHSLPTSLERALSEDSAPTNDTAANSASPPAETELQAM

Liver microsome [2] = settings: rat, microsomes, 1 µM
Description: Half life in rat liver microsomes at 1 uM preincubated for 10 mins followed by addition of NADPH regenerating system by LC-MS analysis

Liver microsome [3] = settings: rat, microsomes, 1 µM; remark: listed apart in the source
[4] = molecular target: T1, N-formyl peptide receptor 2 (Homo sapiens); test: Agonist activity at FPR2 in human PMN assessed as stimulation of Ca2+ influx measured every 5 secs for 240 secs by FLIPR assay relative to fMLF in presence of probenecid; format: functional
[5] = molecular target: T2, fMet-Leu-Phe receptor (Homo sapiens) (UniProt P21462); test: Agonist activity at human FPR1 transfected in human HL60 cells assessed as stimulation of Ca2+ influx measured every 5 secs for 240 secs by FLIPR assay relative to fMLF; format: functional, cell-based; settings: HL-60
T2 sequence (whole entry): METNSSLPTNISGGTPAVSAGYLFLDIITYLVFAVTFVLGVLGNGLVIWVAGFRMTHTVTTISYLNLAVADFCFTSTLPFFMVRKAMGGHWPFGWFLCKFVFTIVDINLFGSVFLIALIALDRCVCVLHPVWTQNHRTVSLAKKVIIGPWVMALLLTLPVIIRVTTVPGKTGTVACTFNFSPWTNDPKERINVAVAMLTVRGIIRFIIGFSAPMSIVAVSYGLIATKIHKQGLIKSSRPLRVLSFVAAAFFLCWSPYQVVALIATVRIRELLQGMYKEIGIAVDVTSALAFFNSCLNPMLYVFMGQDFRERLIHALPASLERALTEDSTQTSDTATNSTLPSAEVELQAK

[6] = molecular target: T3, Formyl peptide receptor-related sequence 1 (Mus musculus) (UniProt O08790); test: Agonist activity at FPR2 in BALB/c mouse assessed as stimulation of Ca2+ influx measured every 5 secs for 240 secs by FLIPR assay relative to fMLF; format: functional
T3 sequence (whole entry): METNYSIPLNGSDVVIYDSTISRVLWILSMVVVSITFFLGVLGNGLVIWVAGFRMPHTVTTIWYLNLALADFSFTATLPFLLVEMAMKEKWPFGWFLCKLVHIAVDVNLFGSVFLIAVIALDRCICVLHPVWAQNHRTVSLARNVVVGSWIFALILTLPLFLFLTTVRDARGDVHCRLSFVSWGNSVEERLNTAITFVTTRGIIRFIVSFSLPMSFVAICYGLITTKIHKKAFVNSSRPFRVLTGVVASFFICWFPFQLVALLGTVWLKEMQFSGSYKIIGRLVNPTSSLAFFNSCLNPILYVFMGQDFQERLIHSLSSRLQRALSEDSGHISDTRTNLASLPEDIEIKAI

fMet-Leu-Phe receptor = molecular target: T4, fMet-Leu-Phe receptor (Homo sapiens, UniProt P21462); test: Agonist activity at human FPR1 transfected in human HL60 cells assessed as stimulation of Ca2+ influx measured every 5 secs for 240 secs by FLIPR assay; format: functional, cell-based, HL-60
T4 sequence (P21462 whole entry): T2 sequence (whole entry)

[7] = molecular target: T1, N-formyl peptide receptor 2 (Homo sapiens); test: Agonist activity at FPR2 in human PMN assessed as stimulation of Ca2+ influx measured every 5 secs for 240 secs by FLIPR assay relative to fMLF in absence of probenecid; format: functional
[8] = molecular target: T5, N-formyl peptide receptor 2 (Homo sapiens, UniProt P25090); test: Agonist activity at FPR2 in human PMN assessed as stimulation of Ca2+ influx measured every 5 secs for 240 secs by FLIPR assay in absence of probenecid; format: functional
T5 sequence (P25090 whole entry): T1 sequence (whole entry)

[9] = molecular target: T5, N-formyl peptide receptor 2; test: Agonist activity at FPR2 in human PMN assessed as stimulation of Ca2+ influx measured every 5 secs for 240 secs by FLIPR assay in presence of probenecid; format: functional
[10] = molecular target: T5, N-formyl peptide receptor 2; test: Agonist activity at human FPR2 transfected in human HL60 cells assessed as stimulation of Ca2+ influx measured every 5 secs for 240 secs by FLIPR assay; format: functional, cell-based, HL-60

Row | SMILES | Efficacy [1] | t1/2 (Liver microsome [2]) | CLH (Liver microsome [3]) | Efficacy [4] | Efficacy [5] | Efficacy [6] | EC50 (fMet-Leu-Phe receptor; read-out: EC50) | Efficacy [7] | EC50 (fMet-Leu-Phe receptor; hl-60) | EC50 ([8]; read-out: EC50) | EC50 ([9]; read-out: EC50) | EC50 ([10]; read-out: EC50) | EC50 [8] | EC50 [9] | EC50 ([10]; hl-60)
1 | COc1ccc(NC(=O)N[C@@H](Cc2c[nH]c3ccccc23)C(=O)NCC2(c3ccc(OC)cn3)CCCCC2)cc1 | 120% | 1.1 min | 1162.4 µL/min/mg | 105% | 130% | 110% | 430 nM |  |  |  |  |  |  |  | 
2 | COc1ccc(C2(CNC(=O)[C@](C)(Cc3c[nH]c4ccccc34)NC(=O)Nc3ccc([N+](=O)[O-])cc3)CCCCC2)nc1 |  | 4.4 min | 314.1 µL/min/mg |  |  |  |  |  |  |  |  |  |  |  | 
3 | COc1ccc(NC(=O)N[C@H](Cc2c[nH]c3ccccc23)C(=O)NCC2(c3ccc(OC)cn3)CCCCC2)cc1 | 100% | 1.2 min | 1290.6 µL/min/mg | 95% |  | 30% |  | 40% | Not Active |  |  |  |  |  | 
4 | COc1ccc(NC(=O)N[C@H](Cc2c[nH]c3ccccc23)C(=O)NCC2(c3ccccn3)CCCCC2)cc1 | 90% | 0.6 min | 2476 µL/min/mg | 115% |  | 55% |  | 40% | Not Active | 620 nM | 490 nM | 310 nM |  |  | 
5 | O=C(O)Cc1ccccc1Nc1c(Cl)cccc1Cl [DICLOFENAC] |  | 8.7 min | 159.8 µL/min/mg |  |  |  |  |  |  |  |  |  |  |  | 
6 | COc1ccc(NC(=O)N[C@H](Cc2c[nH]c3ccccc23)C(=O)NCC2(c3ccc(F)cc3)CCCCC2)cc1 |  |  |  |  |  | 25% |  |  | Not Active |  |  |  | Not Active | Not Active | Not Active
7 | COc1ccc(NC(=O)N[C@H](Cc2c[nH]c3ccccc23)C(=O)NCC2(c3cccnc3)CCCCC2)cc1 |  |  |  |  |  | 80% |  |  | Not Active |  |  |  | Not Active | Not Active | Not Active
8 | COc1ccc(NC(=O)N[C@@H](Cc2c[nH]c3ccccc23)C(=O)NCC2(c3ccnc(F)c3)CCCCC2)cc1 | 115% |  |  | 130% |  | 50% |  | 55% | Not Active | 12600 nM | 660 nM | 1600 nM |  |  | 
9 | COc1ccc(NC(=O)N[C@@H](Cc2c[nH]c3ccccc23)C(=O)NCC2(c3ccc(F)cc3)CCCCC2)cc1 | 40% |  |  | 55% |  | 25% |  |  | Not Active |  | 1100 nM | 860 nM | Not Active |  | 
10 | COc1ccc(NC(=O)N[C@H](Cc2c[nH]c3ccccc23)C(=O)NCC2(c3ccccc3)CCCCC2)cc1 | 65% |  |  | 40% |  | 35% |  |  | Not Active |  | 970 nM | 260 nM | Not Active |  | 
11 | COc1ccc(NC(=O)N[C@@H](Cc2c[nH]c3ccccc23)C(=O)NCC2(c3ccccc3)CCCCC2)cc1 |  |  |  |  |  | 60% |  |  | Not Active |  |  |  | Not Active | Not Active | Not Active
12 | COc1ccc(NC(=O)N[C@H](Cc2c[nH]c3ccccc23)C(=O)NCC2(c3ccnc(F)c3)CCCCC2)cc1 |  |  |  |  |  | 65% |  |  | Not Active |  |  |  | Not Active | Not Active | Not Active
13 | COc1ccc(NC(=O)N[C@@H](Cc2c[nH]c3ccccc23)C(=O)NCC2(c3cccnc3)CCCCC2)cc1 | 75% |  |  | 105% |  | 75% |  | 30% | Not Active | 1800 nM | 270 nM | 730 nM |  |  | 
14 | COc1ccc(NC(=O)N[C@@H](Cc2c[nH]c3ccccc23)C(=O)NCC2(c3ccccn3)CCCCC2)cc1 | 135% |  | 2173.4 µL/min/mg | 120% | 115% | 80% | 950 nM | 85% |  | 1800 nM | 450 nM | 430 nM |  |  | 
